According to US12077503B2, “Substituted cyclic amides and their use as herbicides” (FMC CORPORATION, priority 2015, dated 2024):

Experiments:
Type in all cases: in vivo
[1] = tested on: barnyardgrass (Echinochloa crus-galli); test: Test G Pre-Emergence Protocol; conditions: Echinochloa crus-galli, pre-emergence, 312 h, evaluated after 13 days
Method in brief: (§1)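 Glasshouse pre-emergence test: soil-sown seeds, sprayed after 1 d at 15.625, 62.5 or 250 g/ha. Conditions 24/16° C day/night, 14 h light, 65% humidity, watering twice daily. Rating 13 d post-spray (100 = total damage).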

corn (Zea mays) [2] = test: Test G Pre-Emergence Protocol; conditions: Zea mays, pre-emergence, 312 h, evaluated after 13 days
Method in brief: as §1

[3] = tested on: giant foxtail (Setaria faberi); test: Test G Pre-Emergence Protocol; conditions: Setaria faberi, pre-emergence, 312 h, evaluated after 13 days
Method in brief: as §1

[4] = tested on: ivy-leaved morning glory (Ipomoea hederacea); test: Test G Pre-Emergence Protocol; conditions: Ipomoea, pre-emergence, 312 h, evaluated after 13 days
Method in brief: as §1

[5] = tested on: redroot pigweed (Amaranthus retroflexus); test: Test G Pre-Emergence Protocol; conditions: Amaranthus retroflexus, pre-emergence, 312 h, evaluated after 13 days
Method in brief: as §1

[6] = tested on: velvetleaf (Abutilon theophrasti); test: Test G Pre-Emergence Protocol; conditions: Abutilon theophrasti, pre-emergence, 312 h, evaluated after 13 days
Method in brief: as §1

[7] = tested on: barnyardgrass (Echinochloa crus-galli); test: Test G Post-Emergence Protocol; conditions: Echinochloa crus-galli, post-emergence, 312 h, read-out: Barnyardgrass damage rating
Method in brief: (§2)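 Seedlings grown 8 days in soil in a glasshouse (24/16 °C day/night, 14 h light, 65% humidity) were sprayed post-emergence with compound in acetone/water 50:50 plus 0.5% Tween 20 at 15.625, 62.5 or 250 g/ha. Damage was scored after 13 days on a 0–100 scale (100 = total damage).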

corn (Zea mays) [8] = test: Test G Post-Emergence Protocol; conditions: Zea mays, post-emergence, 312 h, read-out: Corn damage rating
Method in brief: as §2

[9] = tested on: giant foxtail (Setaria faberi); test: Test G Post-Emergence Protocol; conditions: Setaria faberi, post-emergence, 312 h, read-out: Foxtail, Giant damage rating
Method in brief: as §2

[10] = tested on: ivy-leaved morning glory (Ipomoea hederacea); test: Test G Post-Emergence Protocol; conditions: Ipomoea, post-emergence, 312 h, read-out: Morningglory, Ivy-leaved damage rating
Method in brief: as §2

[11] = tested on: redroot pigweed (Amaranthus retroflexus); test: Test G Post-Emergence Protocol; conditions: Amaranthus retroflexus, post-emergence, 312 h, read-out: Pigweed, Redroot damage rating
Method in brief: as §2

[12] = tested on: velvetleaf (Abutilon theophrasti); test: Test G Post-Emergence Protocol; conditions: Abutilon theophrasti, post-emergence, 312 h, read-out: Velvetleaf damage rating
Method in brief: as §2

[13] = 15.625 g ai/ha, evaluated after 13 days (100=total damage to plant; 0=no damage to plant)
[14] = 62.5 g ai/ha, evaluated after 13 days, 100=total damage to plant, 0=no damage to plant
[15] = 250 g ai/ha, evaluated after 13 days, 100=total damage to plant, 0=no damage to plant

CN1C[C@H](c2ccc(Cl)cc2)[C@@H](C(=O)Nc2ccc(F)nc2F)C1=O [Compound 1811]
70%: plant injury at 62.5 g/ha (corn (Zea mays) [2]; 62.5 g ai/ha, 100=total damage to plant, 0=no damage to plant, read-out: Corn damage rating) | pest or weed control at 62.5 g/ha ([5]; 62.5 g ai/ha, 100=total damage to plant, 0=no damage to plant, read-out: Pigweed, Redroot damage rating) | pest or weed control at 250 g/ha ([6]; 250 g ai/ha, read-out: Velvetleaf damage rating (100=total damage to plant; 0=no damage to plant)) | pest or weed control at 250 g/ha [10, 15]
50%: pest or weed control at 62.5 g/ha ([6]; 62.5 g ai/ha, 100=total damage to plant, 0=no damage to plant, read-out: Velvetleaf damage rating) | pest or weed control at 250 g/ha [12, 15]
20%: pest or weed control at 62.5 g/ha ([4]; 62.5 g ai/ha, 100=total damage to plant, 0=no damage to plant, read-out: Morningglory, Ivy-leaved damage rating) | pest or weed control at 62.5 g/ha [10, 14] | pest or weed control at 15.625 g/ha [11, 13]
80%: pest or weed control at 15.625 g/ha ([1]; 15.625 g ai/ha, read-out: Barnyardgrass damage rating (100=total damage to plant; 0=no damage to plant)) | plant injury at 250 g/ha (corn (Zea mays) [2]; 250 g ai/ha, read-out: Corn damage rating (100=total damage to plant; 0=no damage to plant)) | pest or weed control at 250 g/ha ([4]; 250 g ai/ha, read-out: Morningglory, Ivy-leaved damage rating (100=total damage to plant; 0=no damage to plant)) | pest or weed control at 250 g/ha ([5]; 250 g ai/ha, read-out: Pigweed, Redroot damage rating (100=total damage to plant; 0=no damage to plant)) | pest or weed control at 15.625 g/ha [7, 13] | pest or weed control at 62.5 g/ha [7, 14] | pest or weed control at 250 g/ha [7, 15] | plant injury at 250 g/ha (corn (Zea mays) [8]; [15]) | pest or weed control at 15.625 g/ha [9, 13] | pest or weed control at 62.5 g/ha [9, 14] | pest or weed control at 250 g/ha [9, 15] | pest or weed control at 250 g/ha [11, 15]
10%: pest or weed control at 15.625 g/ha ([6]; 15.625 g ai/ha, read-out: Velvetleaf damage rating (100=total damage to plant; 0=no damage to plant)) | pest or weed control at 15.625 g/ha [12, 13]
0%: plant injury at 15.625 g/ha (corn (Zea mays) [2]; 15.625 g ai/ha, read-out: Corn damage rating (100=total damage to plant; 0=no damage to plant)) | pest or weed control at 15.625 g/ha ([4]; 15.625 g ai/ha, read-out: Morningglory, Ivy-leaved damage rating (100=total damage to plant; 0=no damage to plant))
30%: pest or weed control at 15.625 g/ha ([5]; 15.625 g ai/ha, read-out: Pigweed, Redroot damage rating (100=total damage to plant; 0=no damage to plant)) | pest or weed control at 62.5 g/ha [12, 14]
60%: plant injury at 62.5 g/ha (corn (Zea mays) [8]; [14]) | pest or weed control at 62.5 g/ha [11, 14]
40%: plant injury at 15.625 g/ha (corn (Zea mays) [8]; [13]) | pest or weed control at 15.625 g/ha [10, 13]
90%: pest or weed control at 62.5 g/ha ([1]; 62.5 g ai/ha, 100=total damage to plant, 0=no damage to plant, read-out: Barnyardgrass damage rating) | pest or weed control at 250 g/ha ([1]; 250 g ai/ha, read-out: Barnyardgrass damage rating (100=total damage to plant; 0=no damage to plant)) | pest or weed control at 15.625 g/ha ([3]; 15.625 g ai/ha, read-out: Foxtail, Giant damage rating (100=total damage to plant; 0=no damage to plant)) | pest or weed control at 62.5 g/ha ([3]; 62.5 g ai/ha, 100=total damage to plant, 0=no damage to plant, read-out: Foxtail, Giant damage rating) | pest or weed control at 250 g/ha ([3]; 250 g ai/ha, read-out: Foxtail, Giant damage rating (100=total damage to plant; 0=no damage to plant))
